Experimental data: patent US20050234046A1 (Kalypsys, Inc., priority 2004, published 2005)

Assays:
Test in all cases: Transient transfection (transactivation) assay in CV-1 cells, GAL4-PPAR chimera, luciferase reporter
Assay type in all cases: cell-based
PPAR alpha = molecular target: T1, PPAR alpha (Homo sapiens, UniProt Q07869)
T1 construct: expressed in transfected cells; host or cells: CV-1 cells
T1 sequence (Q07869 239-466 limits assumed): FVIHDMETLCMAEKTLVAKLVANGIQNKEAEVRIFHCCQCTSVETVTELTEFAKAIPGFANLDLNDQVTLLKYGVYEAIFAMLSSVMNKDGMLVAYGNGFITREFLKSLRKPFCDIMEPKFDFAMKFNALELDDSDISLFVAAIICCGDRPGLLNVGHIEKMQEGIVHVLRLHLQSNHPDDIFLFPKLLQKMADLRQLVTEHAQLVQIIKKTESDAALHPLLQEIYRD
Summary of the method: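 GAL4 DNA-binding domain fused to PPAR ligand binding domain, co-transfected into CV-1 cells with a luciferase reporter carrying four or five GAL4 sites. Replated cells in phenol-red free DME with 5% delipidated calf serum were treated with compound or 1% DMSO for 20-24 hours; luciferase read for EC50 and efficacy.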

PPAR delta = molecular target: T2, PPAR delta (Homo sapiens, UniProt Q03181)
T2 construct: expressed in transfected cells; host or cells: CV-1 cells
T2 sequence (Q03181 211-439 limits assumed): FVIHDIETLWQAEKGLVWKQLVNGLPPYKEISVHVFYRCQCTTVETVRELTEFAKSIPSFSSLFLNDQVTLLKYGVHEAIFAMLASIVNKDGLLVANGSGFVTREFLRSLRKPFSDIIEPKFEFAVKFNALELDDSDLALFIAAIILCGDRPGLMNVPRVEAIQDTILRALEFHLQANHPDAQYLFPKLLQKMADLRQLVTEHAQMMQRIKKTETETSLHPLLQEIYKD

PPAR gamma = molecular target: T3, PPAR gamma (Homo sapiens, UniProt P37231)
T3 construct: expressed in transfected cells; host or cells: CV-1 cells
T3 sequence (P37231 238-503 limits assumed): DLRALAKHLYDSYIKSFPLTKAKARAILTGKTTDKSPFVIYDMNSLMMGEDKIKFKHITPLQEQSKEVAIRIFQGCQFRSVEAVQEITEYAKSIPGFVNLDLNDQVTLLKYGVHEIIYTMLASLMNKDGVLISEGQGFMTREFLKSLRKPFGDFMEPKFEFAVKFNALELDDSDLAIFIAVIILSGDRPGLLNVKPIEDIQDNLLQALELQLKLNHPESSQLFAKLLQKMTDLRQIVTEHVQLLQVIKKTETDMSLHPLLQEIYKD

SMILES | EC50 (PPAR alpha) [µM] | EC50 (PPAR delta) [µM] | EC50 (PPAR gamma) [µM]
O=C(O)Cc1cc(C(F)(F)F)cc(S(=O)(=O)N2CCN(c3ccc(C(F)(F)F)cc3)CC2)c1 [Example 202, {3-Trifluoromethyl-5-[4-(4-trifluoromethyl-phenyl)-piperazine-1-sulfonyl]-phenyl}-acetic acid] | 5 to 100 | < 5 | 5 to 100
O=C(O)Cc1cc(C(F)(F)F)cc(S(=O)(=O)N2CCN(c3ccc(C(F)(F)F)cn3)CC2)c1 [Example 203, {3-Trifluoromethyl-5-[4-(5-trifluoromethyl-pyridin-2-yl)-piperazine-1-sulfonyl]-phenyl}-acetic acid] | 5 to 100 | < 5 | 5 to 100
C[C@@H]1CN(c2ccc(C(F)(F)F)cn2)C[C@H](C)N1S(=O)(=O)c1cc(CC(=O)O)cc(C(F)(F)F)c1 [Example 204, {3-[2,6-Dimethyl-4-(5-trifluoromethyl-pyridin-2-yl)-piperazine-1-sulfonyl]-5-trifluoromethyl-phenyl}-acetic acid] | > 100 | < 5 | > 100
Cc1ccc(S(=O)(=O)N2CCN(c3ccc(C(F)(F)F)cn3)C(C(F)(F)F)C2)cc1CC(=O)O (stereo not drawn) [Example 205, {2-Methyl-5-[3-trifluoromethyl-4-(5-trifluoromethyl-pyridin-2-yl)-piperazine-1-sulfonyl]-phenyl}-acetic acid] | 5 to 100 | < 5 | 5 to 100
COc1ccc(S(=O)(=O)N2[C@H](C)CN(c3ccc(OC(F)(F)F)cn3)C[C@@H]2C)cc1CC(=O)O [Example 206, {5-[2,6-Dimethyl-4-(5-trifluoromethoxy-pyridin-2-yl)-piperazine-1-sulfonyl]-2-methoxy-phenyl}-acetic acid] | > 100 | < 5 | 5 to 100
O=C(O)Cc1cc(S(=O)(=O)N2CCN(c3ccc(C(F)(F)F)cn3)CC2)ccc1O [Example 207, {5-[4-(5-trifluoromethyl-pyridin-2-yl)-piperazine-1-sulfonyl]-2-hydroxy-phenyl}-acetic acid] | 5 to 100 | < 5 | 5 to 100
O=C(O)Cc1cc(S(=O)(=O)N2CCN(c3ccc(C(F)(F)F)cc3)CC2)ccc1O [Example 208, {5-[4-(4-trifluoromethyl-phenyl)-piperazine-1-sulfonyl]-2-hydroxy-phenyl}-acetic acid] | 5 to 100 | < 5 | > 100
C[C@@H]1CN(c2ccc(OC(F)(F)F)cc2)C[C@H](C)N1S(=O)(=O)c1ccc(O)c(CC(=O)O)c1 [Example 209, {5-[2,6-Dimethyl-4-(4-trifluoromethoxy-phenyl)-piperazine-1-sulfonyl]-2-hydroxy-phenyl}-acetic acid] | > 100 | 5 to 100 | > 100
O=C(O)CSCc1cccc(S(=O)(=O)N2CCN(c3ccc(C(F)(F)F)cc3)CC2)c1 [Example 210, {3-[4-(4-Trifluoromethyl-phenyl)-piperazine-1-sulfonyl]-benzylsulfanyl}-acetic acid] | 5 to 100 | 5 to 100 | 5 to 100
O=C(O)COCc1cccc(S(=O)(=O)N2CCN(c3ccc(C(F)(F)F)cc3)CC2)c1 [Example 211, {3-[4-(4-Trifluoromethyl-phenyl)-piperazine-1-sulfonyl]-benzyloxy}-acetic acid] | > 100 | > 100 | > 100
CC(C)(OCc1cccc(S(=O)(=O)N2CCN(c3ccc(C(F)(F)F)cc3)CC2)c1)C(=O)O [Example 212, 2-Methyl-2-{3-[4-(4-trifluoromethyl-phenyl)-piperazine-1-sulfonyl]-benzyloxy}-propionic acid] | 5 to 100 | > 100 | 5 to 100
Cc1cc(CC(=O)O)cc(S(=O)(=O)N2CCN(c3ccc(OC(F)(F)F)cc3)C[C@@H]2C)c1 [Example 213, {3-Methyl-5-[2-(S)-methyl-4-(4-trifluoromethoxy-phenyl)-piperazine-1-sulfonyl]phenyl}-acetic acid] | 5 to 100 | < 5 | 5 to 100
Cc1ccc(S(=O)(=O)N2CCN(c3ccc(OC(F)(F)F)cc3)C[C@@H]2C)cc1CC(=O)O [Example 214, {2-Methyl-5-[2-(S)-methyl-4-(4-trifluoromethoxy-phenyl)-piperazine-1-sulfonyl]-phenyl}-acetic acid] | 5 to 100 | < 5 | 5 to 100
C[C@H]1CN(c2ccc(C(F)(F)F)c(F)c2)CCN1S(=O)(=O)c1cccc(CC(=O)O)c1 [Example 215, {3-[4-(3-Fluoro-4-trifluoromethyl-phenyl)-2-(S)-methyl-piperazine-1-sulfonyl]-phenyl}-acetic acid] | 5 to 100 | < 5 | 5 to 100
Cc1cc(CC(=O)O)cc(S(=O)(=O)N2CCN(c3ccc(C(F)(F)F)c(F)c3)C[C@@H]2C)c1 [Example 216, {3-[4-(3-Fluoro-4-trifluoromethyl-phenyl)-2-(S)-methyl-piperazine-1-sulfonyl]-5-methyl-phenyl}-acetic acid] | 5 to 100 | < 5 | 5 to 100

Now from value to compound:

EC50 (PPAR alpha) [µM] | EC50 (PPAR delta) [µM] | EC50 (PPAR gamma) [µM] | SMILES
5 to 100 | < 5 | 5 to 100 | Cc1ccc(S(=O)(=O)N2CCN(c3ccc(C(F)(F)F)c(F)c3)C[C@@H]2C)cc1CC(=O)O [Example 217, {5-[4-(3-Fluoro-4-trifluoromethyl-phenyl)-2-(S)-methyl-piperazine-1-sulfonyl]-2-methyl-phenyl}-acetic acid]
< 5 | < 5 | 5 to 100 | C[C@H]1CN(S(=O)(=O)c2cccc(CC(=O)O)c2)CCN1c1ccc(C(F)(F)F)c(F)c1 [Example 218, {3-[4-(3-Fluoro-4-trifluorometbyl-phenyl)-3-(S)-methyl-piperazine-1-sulfonyl]-phenyl}-acetic acid]
5 to 100 | < 5 | 5 to 100 | Cc1cc(CC(=O)O)cc(S(=O)(=O)N2CCN(c3ccc(C(F)(F)F)c(F)c3)[C@@H](C)C2)c1 [Example 219]
5 to 100 | < 5 | > 100 | C[C@@H]1CN(c2ccc(C(F)(F)F)cn2)C[C@H](C)N1S(=O)(=O)c1cccc(CC(=O)O)c1 [Example 220, {3-[2,6-Dimethyl-4-(5-trifluoromethyl-pyridin-2-yl)-piperazine-1-sulfonyl]-phenyl}-acetic acid]
5 to 100 | < 5 | 5 to 100 | C[C@H]1CN(S(=O)(=O)c2cccc(CC(=O)O)c2)CCN1c1ccc(OC(F)(F)F)cc1 [Example 221, {3-[3-(s)-Methyl-4-(4-trifluoromethoxy-phenyl)-piperazine-1-sulfonyl]-phenyl}-acetic acid]
5 to 100 | < 5 | > 100 | Cc1cc(CC(=O)O)cc(S(=O)(=O)N2[C@H](C)CN(c3ccc(C(F)(F)F)c(F)c3)C[C@@H]2C)c1 [Example 222]
5 to 100 | < 5 | 5 to 100 | Cc1cc(CC(=O)O)cc(S(=O)(=O)N2CCN(c3ccc(OC(F)(F)F)cc3)CC2)c1 [Example 223, {3-Methyl-5-[4-(4-trifluoromethoxy-phenyl)-piperazine-1-sulfonyl]-phenyl}-acetic acid]
5 to 100 | < 5 | 5 to 100 | Cc1cc(CC(=O)O)cc(S(=O)(=O)N2CCN(c3ccc(OC(F)(F)F)cc3)[C@@H](C)C2)c1 [Example 224, {3-Methyl-5-[3-(s)-methyl-4-(4-trifluoromethoxy-phenyl)-piperazine-1-sulfonyl]-phenyl}-acetic acid]
5 to 100 | < 5 | < 5 | Cc1cc(CC(=O)O)cc(S(=O)(=O)N2CCN(c3ccc(C(F)(F)F)cn3)CC2)c1 [Example 225]
5 to 100 | < 5 | 5 to 100 | C[C@H]1CN(c2ccc(OC(F)(F)F)cc2)CCN1S(=O)(=O)c1cccc(CC(=O)O)c1 [Example 226, {3-[2-(s)-Methyl-4-(4-trifluoromethoxy-phenyl)-piperazine-1-sulfonyl]-phenyl}-acetic acid]
5 to 100 | < 5 | < 5 | C[C@@H]1CN(S(=O)(=O)c2cccc(CC(=O)O)c2)C[C@H](C)N1c1ccc(C(F)(F)F)cn1 [Example 227, 2-(3-(-3,5-Dimethyl-4-(5-(trifluoromethyl)pyridine-2-yl)piperazin-1-ylsulfonyl)phenyl)acetic acid]
5 to 100 | < 5 | < 5 | Cc1cc(CC(=O)O)cc(S(=O)(=O)N2C[C@@H](C)N(c3ccc(C(F)(F)F)cn3)[C@@H](C)C2)c1 [Example 228, 2-(3-(-3,5-Dimethyl-4-(5-(trifluoromethyl)pyridine-2-yl)piperazin-1-ylsulfonyl)-5-methylphenyl)acetic acid]
